Laboratory results published in patent publication US20230265151A1, “GIP/GLP1 CO-AGONIST COMPOUNDS” (priority 2020, published 2023).
Read-outs that look alike come from different tables or passages of the source. *1 amine or outer side, *2 acyl side, *3 side chain or, on linkers, in order; H or OH if unused. Where a SMILES comes first, the peptide text is derived from it. Side-chain parts run from the residue outwards. [ ]: non-standard residue; d: D form. The star is where a group is joined. αMePhe(2-F) = C[C@](N)(Cc1ccccc1F)C(=O)O; γGlu = O=C(O)[C@H](CCC(=O)[*:2])N[*:1]; αMeY = C[C@](N)(Cc1ccc(O)cc1)C(=O)O; αMeF = C[C@](N)(Cc1ccccc1)C(=O)O; 4Pal = N[C@@H](Cc1ccncc1)C(=O)O; αMeL = CC(C)C[C@](C)(N)C(=O)O; Lauroyl = CCCCCCCCCCCC(=O)*; Orn = NCCC[C@H](N)C(=O)O; AEEA = NCCOCCOCC(=O)O; Aib = CC(C)(N)C(=O)O

Key:
Type in all cases: cell-based
hGIPR = biological target: T1, hGIPR (Homo sapiens, UniProt P48546); experiment: Functional cAMP formation (HTRF) in HEK-293 clonal cells expressing hGIPR, 0.1% bovine casein, without or with 1.0% human serum albumin; settings: 37° C.; for Emax: HEK293, cAMP, percent of maximal response to GIP(1-42)NH2, read-out: hGIPR Emax, % ± SEM; for EC50: cAMP, read-out: hGIPR EC50, nM (SEM, n)
T1 construct: expressed in transfected cells
T1 sequence (P48546 22-466): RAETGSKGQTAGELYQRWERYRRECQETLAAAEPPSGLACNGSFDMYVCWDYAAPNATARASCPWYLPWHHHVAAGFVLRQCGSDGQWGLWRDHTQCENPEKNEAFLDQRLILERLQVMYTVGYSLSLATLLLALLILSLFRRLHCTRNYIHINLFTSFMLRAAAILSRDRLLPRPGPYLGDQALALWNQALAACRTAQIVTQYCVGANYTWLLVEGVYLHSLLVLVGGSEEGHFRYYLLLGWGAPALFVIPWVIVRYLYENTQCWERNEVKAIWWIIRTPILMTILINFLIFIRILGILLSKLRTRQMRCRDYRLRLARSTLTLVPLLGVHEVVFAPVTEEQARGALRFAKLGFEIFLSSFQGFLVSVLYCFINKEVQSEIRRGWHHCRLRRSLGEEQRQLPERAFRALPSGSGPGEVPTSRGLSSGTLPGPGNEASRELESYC
In short: (§1)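 Readings of the HTRF 665/620 nm ratio, which falls as cAMP rises, were converted to nM cAMP using a standard curve after 30 min peptide exposure at 37° C.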

hGLP-1R = hGLP-1R (Homo sapiens, UniProt P43220); experiment: Functional cAMP formation (HTRF) in HEK-293 clonal cells expressing hGLP-1R, 0.1% bovine casein, without or with 1.0% human serum albumin; parameters: expressed in transfected cells; settings: 37° C.; for Emax: HEK293, cAMP, percent of maximal response to GLP-1(7-36)NH2, read-out: hGLP-1R Emax, % ± SEM; for EC50: cAMP, read-out: hGLP-1R EC50, nM (SEM, n)
Sequence of hGLP-1R (P43220 24-463): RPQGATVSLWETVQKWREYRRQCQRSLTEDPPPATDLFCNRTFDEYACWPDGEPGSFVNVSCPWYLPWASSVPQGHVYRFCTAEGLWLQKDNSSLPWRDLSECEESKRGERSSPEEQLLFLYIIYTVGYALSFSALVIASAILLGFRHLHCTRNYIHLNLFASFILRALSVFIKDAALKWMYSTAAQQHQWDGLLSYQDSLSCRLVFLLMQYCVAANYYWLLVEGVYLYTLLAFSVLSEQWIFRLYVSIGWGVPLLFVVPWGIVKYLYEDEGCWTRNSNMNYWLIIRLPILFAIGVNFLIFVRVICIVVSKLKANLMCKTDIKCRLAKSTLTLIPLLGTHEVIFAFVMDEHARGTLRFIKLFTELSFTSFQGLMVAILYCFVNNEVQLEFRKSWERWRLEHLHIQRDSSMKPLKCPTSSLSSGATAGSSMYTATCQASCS
In short: as §1

hGCGR = biological target: T2, hGCGR (Homo sapiens, UniProt P47871); experiment: Functional cAMP formation (HTRF) in HEK-293 clonal cells expressing hGCGR, 0.1% bovine casein, without or with 1.0% human serum albumin; settings: cAMP, 37° C., read-out: hGCGR EC50, nM (SEM, n)
T2 construct: expressed in transfected cells
T2 sequence (P47871 26-477): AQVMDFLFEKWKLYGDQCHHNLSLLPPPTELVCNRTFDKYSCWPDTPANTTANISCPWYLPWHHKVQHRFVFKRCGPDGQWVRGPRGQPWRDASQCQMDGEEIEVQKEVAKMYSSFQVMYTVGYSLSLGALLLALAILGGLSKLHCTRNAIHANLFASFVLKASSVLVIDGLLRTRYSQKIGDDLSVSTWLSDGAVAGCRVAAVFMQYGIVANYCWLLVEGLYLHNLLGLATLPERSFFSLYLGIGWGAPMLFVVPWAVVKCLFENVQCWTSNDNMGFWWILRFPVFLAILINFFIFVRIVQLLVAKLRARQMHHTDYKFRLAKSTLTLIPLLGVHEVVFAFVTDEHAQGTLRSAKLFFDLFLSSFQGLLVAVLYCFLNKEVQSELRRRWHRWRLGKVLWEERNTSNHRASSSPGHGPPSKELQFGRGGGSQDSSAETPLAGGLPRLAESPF
In short: as §1

[1] = 0.1% bovine casein and 1.0% human serum albumin
[2] = 0.1% bovine casein, arithmetic mean
[3] = 0.1% bovine casein (no human serum albumin), geometric mean
[4] = 0.1% bovine casein and 1.0% human serum albumin, geometric mean (SEM, n)

Structure (SMILES)	Emax (hGIPR; [1]) [%]	Emax (hGIPR; [2]) [%]	EC50 (hGIPR; [3]) [nM]	Emax (hGLP-1R; [2]) [%]	EC50 (hGLP-1R; [3]) [nM]	EC50 (hGLP-1R; [4]) [nM]	EC50 (hGCGR; [3]) [nM]	EC50 (hGCGR; [4]) [nM]	Emax (hGLP-1R; [1]) [%]	EC50 (hGIPR; [4]) [nM]
CCCCCCCCCCCC(=O)N[C@@H](CCC(=O)NCCOCCOCC(=O)NCCCC[C@H](NC(=O)[C@H](CCCN)NC(=O)[C@H](CC(=O)O)NC(=O)[C@H](CC(C)C)NC(=O)[C@](C)(CC(C)C)NC(=O)[C@@H](NC(=O)C(C)(C)NC(=O)[C@H](Cc1ccncc1)NC(=O)[C@H](CC(=O)O)NC(=O)[C@H](CO)NC(=O)[C@@H](NC(=O)[C@](C)(Cc1ccccc1F)NC(=O)[C@@H](NC(=O)CNC(=O)[C@H](CCC(=O)O)NC(=O)C(C)(C)NC(=O)[C@@H](N)Cc1ccc(O)cc1)[C@@H](C)O)[C@@H](C)O)[C@@H](C)CC)C(=O)N[C@@H](C)C(=O)N[C@@H](CCC(N)=O)C(=O)NC(C)(C)C(=O)N[C@@H](CCCCNC(=O)COCCOCCNC(=O)CC[C@H](NC(=O)CCCCCCCCCCC)C(=O)O)C(=O)N[C@@H](Cc1ccccc1)C(=O)N[C@H](C(=O)N[C@H](CCC(=O)O)C(=O)N[C@@](C)(Cc1ccc(O)cc1)C(=O)N[C@@H](CC(C)C)C(=O)N[C@H](C(=O)N[C@@H](CCC(=O)O)C(=O)NCC(=O)NCC(=O)N1CCC[C@H]1C(=O)N[C@@H](CO)C(=O)N[C@@H](CO)C(=O)NCC(=O)N[C@@H](C)C(=O)N1CCC[C@H]1C(=O)N1CCC[C@H]1C(=O)N1CCC[C@H]1C(=O)N[C@@H](CO)C(N)=O)[C@@H](C)CC)[C@@H](C)CC)C(=O)O [Example 426]	91.2	93.3	0.0191	97.2	0.206	29.7	> 9950	> 9950	–	–
CCCCCCCCCCCC(=O)N[C@@H](CCC(=O)NCCOCCOCC(=O)NCCCC[C@H](NC(=O)[C@H](CCCN)NC(=O)[C@H](CC(=O)O)NC(=O)[C@H](CC(C)C)NC(=O)[C@](C)(CC(C)C)NC(=O)[C@@H](NC(=O)C(C)(C)NC(=O)[C@H](Cc1ccncc1)NC(=O)[C@H](CC(=O)O)NC(=O)[C@H](CO)NC(=O)[C@@H](NC(=O)[C@](C)(Cc1ccccc1F)NC(=O)[C@@H](NC(=O)CNC(=O)[C@H](CCC(=O)O)NC(=O)C(C)(C)NC(=O)[C@@H](N)Cc1ccc(O)cc1)[C@@H](C)O)[C@@H](C)O)[C@@H](C)CC)C(=O)N[C@@H](C)C(=O)N[C@@H](CCC(N)=O)C(=O)NC(C)(C)C(=O)N[C@@H](CCC(=O)O)C(=O)N[C@@H](Cc1ccccc1)C(=O)N[C@H](C(=O)N[C@H](CCC(=O)O)C(=O)N[C@@](C)(Cc1ccc(O)cc1)C(=O)N[C@@H](CC(C)C)C(=O)N[C@H](C(=O)N[C@@H](CCCCNC(=O)COCCOCCNC(=O)CC[C@H](NC(=O)CCCCCCCCCCC)C(=O)O)C(=O)NCC(=O)NCC(=O)N1CCC[C@H]1C(=O)N[C@@H](CO)C(=O)N[C@@H](CO)C(=O)NCC(=O)N[C@@H](C)C(=O)N1CCC[C@H]1C(=O)N1CCC[C@H]1C(=O)N1CCC[C@H]1C(=O)N[C@@H](CO)C(N)=O)[C@@H](C)CC)[C@@H](C)CC)C(=O)O [Example 427]	92.4	95.9	0.0132	109	0.206	25.1	> 9950	> 9950	109	–
CCCCCCCCCCCC(=O)N[C@@H](CCC(=O)NCCOCCOCC(=O)NCCCC[C@H](NC(=O)[C@H](CO)NC(=O)[C@@H]1CCCN1C(=O)[C@@H]1CCCN1C(=O)[C@@H]1CCCN1C(=O)[C@H](C)NC(=O)CNC(=O)[C@H](CO)NC(=O)[C@H](CO)NC(=O)[C@@H]1CCCN1C(=O)CNC(=O)CNC(=O)[C@H](CCC(=O)O)NC(=O)[C@@H](NC(=O)[C@H](CC(C)C)NC(=O)[C@](C)(Cc1ccc(O)cc1)NC(=O)[C@@H](CCC(=O)O)NC(=O)[C@@H](NC(=O)[C@H](Cc1ccccc1)NC(=O)[C@H](CCC(=O)O)NC(=O)C(C)(C)NC(=O)[C@H](CCC(N)=O)NC(=O)[C@H](C)NC(=O)[C@H](CCCCNC(=O)COCCOCCNC(=O)CC[C@H](NC(=O)CCCCCCCCCCC)C(=O)O)NC(=O)[C@H](CCCN)NC(=O)[C@H](CC(=O)O)NC(=O)[C@H](CC(C)C)NC(=O)[C@](C)(CC(C)C)NC(=O)[C@@H](NC(=O)C(C)(C)NC(=O)[C@H](Cc1ccncc1)NC(=O)[C@H](CC(=O)O)NC(=O)[C@H](CO)NC(=O)[C@@H](NC(=O)[C@](C)(Cc1ccccc1F)NC(=O)[C@@H](NC(=O)CNC(=O)[C@H](CCC(=O)O)NC(=O)C(C)(C)NC(=O)[C@@H](N)Cc1ccc(O)cc1)[C@@H](C)O)[C@@H](C)O)[C@@H](C)CC)[C@@H](C)CC)[C@@H](C)CC)C(N)=O)C(=O)O [Example 428]	93.6	95.5	0.00797	–	0.102	10.2	> 9950	> 9950	105	–
CCCCCCCCCCCC(=O)N[C@@H](CCC(=O)NCCOCCOCC(=O)NCCOCCOCC(=O)NCCCC[C@H](NC(=O)[C@H](CCCN)NC(=O)[C@H](CC(=O)O)NC(=O)[C@H](CC(C)C)NC(=O)[C@](C)(CC(C)C)NC(=O)[C@@H](NC(=O)C(C)(C)NC(=O)[C@H](CCCCNC(=O)COCCOCCNC(=O)COCCOCCNC(=O)CC[C@H](NC(=O)CCCCCCCCCCC)C(=O)O)NC(=O)[C@H](CC(=O)O)NC(=O)[C@H](CO)NC(=O)[C@@H](NC(=O)[C@](C)(Cc1ccccc1F)NC(=O)[C@@H](NC(=O)CNC(=O)[C@H](CCC(=O)O)NC(=O)C(C)(C)NC(=O)[C@@H](N)Cc1ccc(O)cc1)[C@@H](C)O)[C@@H](C)O)[C@@H](C)CC)C(=O)N[C@@H](C)C(=O)N[C@@H](CCC(N)=O)C(=O)NC(C)(C)C(=O)N[C@@H](CCC(=O)O)C(=O)N[C@@](C)(Cc1ccccc1)C(=O)N[C@H](C(=O)N[C@H](CCC(=O)O)C(=O)N[C@@](C)(Cc1ccc(O)cc1)C(=O)N[C@@H](CC(C)C)C(=O)N[C@H](C(=O)N[C@@H](CCC(=O)O)C(=O)NCC(=O)NCC(=O)N1CCC[C@H]1C(=O)N[C@@H](CO)C(=O)N[C@@H](CO)C(=O)NCC(=O)N[C@@H](C)C(=O)N1CCC[C@H]1C(=O)N1CCC[C@H]1C(=O)N1CCC[C@H]1C(=O)N[C@@H](CO)C(N)=O)[C@@H](C)CC)[C@@H](C)CC)C(=O)O [Example 429]	93.3	–	0.00799	116	0.116	17.3	> 9950	> 9950	–	–
CCCCCCCCCCCC(=O)N[C@@H](CCC(=O)NCCOCCOCC(=O)NCCOCCOCC(=O)NCCCC[C@H](NC(=O)[C@H](CCCN)NC(=O)[C@H](CC(=O)O)NC(=O)[C@H](CC(C)C)NC(=O)[C@](C)(CC(C)C)NC(=O)[C@@H](NC(=O)C(C)(C)NC(=O)[C@H](Cc1ccncc1)NC(=O)[C@H](CC(=O)O)NC(=O)[C@H](CO)NC(=O)[C@@H](NC(=O)[C@](C)(Cc1ccccc1F)NC(=O)[C@@H](NC(=O)CNC(=O)[C@H](CCC(=O)O)NC(=O)C(C)(C)NC(=O)[C@@H](N)Cc1ccc(O)cc1)[C@@H](C)O)[C@@H](C)O)[C@@H](C)CC)C(=O)N[C@@H](C)C(=O)N[C@@H](CCC(N)=O)C(=O)NC(C)(C)C(=O)N[C@@H](CCCCNC(=O)COCCOCCNC(=O)COCCOCCNC(=O)CC[C@H](NC(=O)CCCCCCCCCCC)C(=O)O)C(=O)N[C@@](C)(Cc1ccccc1)C(=O)N[C@H](C(=O)N[C@H](CCC(=O)O)C(=O)N[C@@](C)(Cc1ccc(O)cc1)C(=O)N[C@@H](CC(C)C)C(=O)N[C@H](C(=O)N[C@@H](CCC(=O)O)C(=O)NCC(=O)NCC(=O)N1CCC[C@H]1C(=O)N[C@@H](CO)C(=O)N[C@@H](CO)C(=O)NCC(=O)N[C@@H](C)C(=O)N1CCC[C@H]1C(=O)N1CCC[C@H]1C(=O)N1CCC[C@H]1C(=O)N[C@@H](CO)C(N)=O)[C@@H](C)CC)[C@@H](C)CC)C(=O)O [Example 430] (H-Y[Aib]EGT[αMePhe(2-F)]TSD[4Pal][Aib]I[αMeL]LD[Orn]K([AEEA-AEEA-γGlu-Lauroyl])AQ[Aib]K([AEEA-AEEA-γGlu-Lauroyl])[αMeF]I[dE][αMeY]LIEGGPSSGAPPPS-NH2)	91.5	–	0.0175	93.1	0.342	–	> 9950	> 9950	88.5	1.09
